Our source for the GI50 and TGI values is PubChem BioAssay (NCI).

Test systems include T-47D breast; UACC-62 melanoma; NCI-H522 lung; ACHN renal; SK-MEL-28 melanoma; NCI-H460 lung; HL-60(TB) leukemia; SN12C renal; UACC-257 melanoma; TK-10 renal.
Common to all, as to test: NCI tumour cell line growth inhibition, 48 h

Each structure is given as a SMILES string.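 Cultured in 96-well plates, cells were exposed to test compound for 48 hours across five concentrations. GI50 marks 50% less growth. TGI: total growth inhibition.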 Where only a bound is given, the exact number is not on record here.

As for `C=CN(C)S(C)(=O)=O`, the GI50 in the experiment with T-47D breast, in the experiment on UACC-62 melanoma, in the experiment with NCI-H522 lung, in the experiment on ACHN renal, in the experiment with SK-MEL-28 melanoma and in the experiment on NCI-H460 lung was > 100 µM each time. Also, the GI50 with HL-60(TB) leukemia, in the experiment on SN12C renal and with UACC-257 melanoma was > 100 µM in each case. The TGI with T-47D breast, in the experiment with UACC-62 melanoma, with NCI-H522 lung, in the experiment with ACHN renal, in the experiment with SK-MEL-28 melanoma and with NCI-H460 lung was > 100 µM throughout. Moreover, the TGI in the experiment with HL-60(TB) leukemia, in the experiment with SN12C renal and in the experiment with UACC-257 melanoma was > 100 µM each time.

In the case of `C=C1C(=O)O[C@@H]2C1C[C@@H](O)C(=C)CC/C=C(\C)CCC[C@H](C)[C@H]2OC(C)=O` (some centres not stated), the GI50 with TK-10 renal was 2.11 µM; in the experiment on T-47D breast, 6.46 µM; in the experiment on UACC-62 melanoma, 7.45 µM; in the experiment on NCI-H522 lung, 3.55 µM; with ACHN renal, 1.69 µM; in the experiment on SK-MEL-28 melanoma, 4.78 µM. The GI50 was 18.2 µM in the experiment on NCI-H460 lung, 3.5 µM with SN12C renal and 16 µM in the experiment on UACC-257 melanoma. The TGI came to 5.57 µM with TK-10 renal; 42.3 µM in the experiment with T-47D breast; 21.7 µM with UACC-62 melanoma; 12.7 µM in the experiment on NCI-H522 lung; 3.85 µM with ACHN renal; 23 µM in the experiment on SK-MEL-28 melanoma. For the same compound, the results for the TGI with NCI-H460 lung, in the experiment with SN12C renal and with UACC-257 melanoma were 41.4 µM, 15.3 µM and 35.9 µM, respectively.

Consider `N#CC1=C(N)NC(=S)NC12Nc1ccccc1N2`, for which the GI50 with TK-10 renal was 46.4 µM; in the experiment on T-47D breast, 69.7 µM; with UACC-62 melanoma it was 12.5 µM; in the experiment on NCI-H522 lung, 20.8 µM; in the experiment with SK-MEL-28 melanoma, 47.4 µM; in the experiment with NCI-H460 lung, 28.7 µM. Further, the GI50 with HL-60(TB) leukemia was 20.8 µM; in the experiment with SN12C renal, 55.5 µM; in the experiment on UACC-257 melanoma, > 100 µM. Moreover, the TGI in the experiment on TK-10 renal was > 100 µM; with T-47D breast it was > 100 µM; in the experiment with UACC-62 melanoma it was 57.5 µM; in the experiment with NCI-H522 lung it was 80 µM; with SK-MEL-28 melanoma, > 100 µM; in the experiment with NCI-H460 lung it was > 100 µM. The TGI in the experiment on HL-60(TB) leukemia, in the experiment on SN12C renal and with UACC-257 melanoma was > 100 µM in each case.

`COc1cc(OC)c(NC(=O)c2cc3ccccc3cc2O)cc1Cl`: the GI50 with TK-10 renal is 3.15 µM; in the experiment with T-47D breast, 2.29 µM; with UACC-62 melanoma, 2.87 µM; in the experiment on NCI-H522 lung, 2.56 µM; with ACHN renal, 2.51 µM; in the experiment with SK-MEL-28 melanoma, 3.6 µM. The GI50 in the experiment with NCI-H460 lung was 2.43 µM; in the experiment on HL-60(TB) leukemia, 1.91 µM; with SN12C renal it was 2.26 µM. The TGI in the experiment with TK-10 renal is 8.57 µM; with T-47D breast it was > 100 µM; with UACC-62 melanoma, 14.1 µM; in the experiment with NCI-H522 lung it was 6.12 µM; in the experiment on ACHN renal, 7.19 µM; in the experiment with SK-MEL-28 melanoma, 17.3 µM. Besides, the figures for the TGI in the experiment with NCI-H460 lung, in the experiment with HL-60(TB) leukemia and in the experiment with SN12C renal were 5.82 µM, 7.99 µM and 7.67 µM, respectively.

In the case of `O=C(NCc1ccco1)c1ccc(NC2=C(Cl)C(=O)N(Cc3ccccc3)C2=O)cc1`, the GI50 was 30.7 µM with TK-10 renal; 41 µM with T-47D breast; 16.7 µM in the experiment on UACC-62 melanoma; 19.5 µM in the experiment on NCI-H522 lung; 19.9 µM in the experiment with SK-MEL-28 melanoma; 26.7 µM in the experiment with NCI-H460 lung. Further, the GI50 in the experiment on HL-60(TB) leukemia is 17.4 µM; with SN12C renal it was 17.4 µM; in the experiment on UACC-257 melanoma it was 28.9 µM. For the same compound, the TGI with TK-10 renal is 76.7 µM; in the experiment with T-47D breast, > 100 µM; in the experiment with UACC-62 melanoma, 36.7 µM; in the experiment with NCI-H522 lung, 57.9 µM; in the experiment with SK-MEL-28 melanoma, 43.4 µM; in the experiment with NCI-H460 lung, > 100 µM. Moreover, the TGI came out at 33.8 µM in the experiment with HL-60(TB) leukemia, 40.6 µM with SN12C renal and 80.8 µM in the experiment on UACC-257 melanoma.

Consider `O=c1c2c3c(sc2nc(N/N=C/c2ccc(Br)cc2)n1Cc1ccccc1)CCCC3`, for which the GI50 with TK-10 renal was 39.9 µM; in the experiment with T-47D breast, 21.2 µM; with UACC-62 melanoma, > 100 µM; in the experiment on NCI-H522 lung, 7.21 µM; in the experiment with ACHN renal, > 100 µM; in the experiment with SK-MEL-28 melanoma, > 100 µM. For the same compound, the GI50 was 10.2 µM in the experiment with NCI-H460 lung, 9.26 µM in the experiment with HL-60(TB) leukemia and > 100 µM in the experiment with UACC-257 melanoma. Moreover, the TGI in the experiment on TK-10 renal, with T-47D breast, in the experiment with UACC-62 melanoma, with NCI-H522 lung, with ACHN renal and in the experiment on SK-MEL-28 melanoma was > 100 µM in each case. For the same compound, the TGI in the experiment with NCI-H460 lung, in the experiment with HL-60(TB) leukemia and with UACC-257 melanoma was > 100 µM in each case.

As to `OCC1OC(n2cnc3c(Cl)nc(Cl)cc32)C(O)C1O` (configuration not stated), the GI50 with TK-10 renal, in the experiment with T-47D breast, in the experiment with UACC-62 melanoma, in the experiment with NCI-H522 lung, in the experiment with ACHN renal and in the experiment with SK-MEL-28 melanoma was > 100 µM each time. Further, the GI50 in the experiment with NCI-H460 lung, in the experiment with HL-60(TB) leukemia and in the experiment with SN12C renal was > 100 µM in each case. Moreover, the TGI in the experiment on TK-10 renal, in the experiment on T-47D breast, in the experiment with UACC-62 melanoma, with NCI-H522 lung, in the experiment on ACHN renal and in the experiment on SK-MEL-28 melanoma was > 100 µM throughout. The TGI with NCI-H460 lung, in the experiment on HL-60(TB) leukemia and in the experiment on SN12C renal was > 100 µM in each case.

Turning to `O=C1OC(c2ccccc2)(c2cc(Br)c(O)c(Br)c2)c2ccccc21` (configuration not stated), the GI50 in the experiment on T-47D breast was 26.8 µM; in the experiment with UACC-62 melanoma, 15.6 µM; with ACHN renal it was 34.5 µM; in the experiment on SK-MEL-28 melanoma it was 21.1 µM; in the experiment with NCI-H460 lung, 19.6 µM; in the experiment on HL-60(TB) leukemia, 22.8 µM. Moreover, the results for the GI50 in the experiment with SN12C renal and in the experiment on UACC-257 melanoma were 50 µM and 35.4 µM, respectively. Further, the TGI in the experiment with T-47D breast was > 100 µM; with UACC-62 melanoma it was 31.7 µM; with ACHN renal, > 100 µM; with SK-MEL-28 melanoma, 49.2 µM; with NCI-H460 lung, 43.9 µM; with HL-60(TB) leukemia, 67.8 µM. Moreover, the TGI in the experiment with SN12C renal and with UACC-257 melanoma was > 100 µM each time.
